{
  "source": "paper PMC7827406",
  "about": "“Structure–Activity Relationship (SAR) Study of Spautin-1 to Entail the Discovery of Novel NEK4 Inhibitors” (International Journal of Molecular Sciences, 2021)",
  "test_in_all_cases": "biochemical",
  "parameters_in_all_cases": "Eurofins KinaseProfiler full panel at Km ATP, residual kinase activity (%) relative to DMSO",
  "key": {"PrKX(h)": {"target": "T1, PrKX(h) (Homo sapiens, UniProt P51817)", "T1 sequence (P51817 1-358)": "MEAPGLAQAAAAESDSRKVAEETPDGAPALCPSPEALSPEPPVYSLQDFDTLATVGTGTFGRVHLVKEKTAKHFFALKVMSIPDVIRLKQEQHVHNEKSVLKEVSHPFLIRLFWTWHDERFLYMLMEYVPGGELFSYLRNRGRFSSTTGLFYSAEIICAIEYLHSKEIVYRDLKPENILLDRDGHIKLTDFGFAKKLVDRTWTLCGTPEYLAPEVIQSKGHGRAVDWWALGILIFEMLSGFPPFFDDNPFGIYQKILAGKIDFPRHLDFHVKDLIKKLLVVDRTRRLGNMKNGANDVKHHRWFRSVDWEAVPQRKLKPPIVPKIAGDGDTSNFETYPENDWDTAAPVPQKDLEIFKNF", "method_in_brief": "(§1)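 Two 10 µM single-concentration screens were run: a competition-binding screen, in which DNA-tagged kinase bound to immobilized ligands was quantified by qPCR, and a radiometric activity panel at Km ATP. Each is expressed as residual kinase activity (%).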"}, "Flt1(h)": {"target": "Flt1(h) (Homo sapiens, UniProt P17948)", "sequence (P17948 whole entry)": "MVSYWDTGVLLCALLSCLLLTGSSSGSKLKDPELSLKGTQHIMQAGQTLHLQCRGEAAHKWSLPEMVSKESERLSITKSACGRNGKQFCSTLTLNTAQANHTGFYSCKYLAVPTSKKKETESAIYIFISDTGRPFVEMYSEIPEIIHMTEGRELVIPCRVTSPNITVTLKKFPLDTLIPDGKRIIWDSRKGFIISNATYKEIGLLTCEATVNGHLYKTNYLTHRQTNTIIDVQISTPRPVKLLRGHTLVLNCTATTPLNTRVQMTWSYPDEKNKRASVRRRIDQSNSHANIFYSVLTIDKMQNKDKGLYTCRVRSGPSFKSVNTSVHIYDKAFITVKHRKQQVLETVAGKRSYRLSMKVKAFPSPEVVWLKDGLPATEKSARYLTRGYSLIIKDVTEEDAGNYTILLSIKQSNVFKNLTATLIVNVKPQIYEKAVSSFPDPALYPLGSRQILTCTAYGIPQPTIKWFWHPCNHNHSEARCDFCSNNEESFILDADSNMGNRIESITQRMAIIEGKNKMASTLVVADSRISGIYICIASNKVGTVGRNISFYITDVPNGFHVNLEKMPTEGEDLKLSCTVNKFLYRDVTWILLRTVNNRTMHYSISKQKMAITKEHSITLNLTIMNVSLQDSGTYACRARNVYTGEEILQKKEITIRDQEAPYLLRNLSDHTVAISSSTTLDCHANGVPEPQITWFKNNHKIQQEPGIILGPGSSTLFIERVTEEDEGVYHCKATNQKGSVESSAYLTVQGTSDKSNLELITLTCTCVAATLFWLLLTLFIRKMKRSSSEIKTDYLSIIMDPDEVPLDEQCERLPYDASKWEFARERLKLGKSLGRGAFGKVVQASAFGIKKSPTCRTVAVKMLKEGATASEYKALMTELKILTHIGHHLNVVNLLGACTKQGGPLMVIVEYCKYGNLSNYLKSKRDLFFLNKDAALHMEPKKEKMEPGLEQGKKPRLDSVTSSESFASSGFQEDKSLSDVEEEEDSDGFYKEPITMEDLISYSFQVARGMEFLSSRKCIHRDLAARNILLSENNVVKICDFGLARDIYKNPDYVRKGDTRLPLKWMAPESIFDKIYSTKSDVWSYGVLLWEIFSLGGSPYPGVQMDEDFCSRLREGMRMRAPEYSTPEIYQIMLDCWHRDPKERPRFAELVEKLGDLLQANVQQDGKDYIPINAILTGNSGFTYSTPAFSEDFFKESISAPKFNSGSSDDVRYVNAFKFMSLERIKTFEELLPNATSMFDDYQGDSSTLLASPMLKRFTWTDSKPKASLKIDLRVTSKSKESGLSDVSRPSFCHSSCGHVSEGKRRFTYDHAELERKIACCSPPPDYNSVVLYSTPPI", "method_in_brief": "as §1"}, "DCAMKL1(h)": {"target": "T2, DCAMKL1(h) (Homo sapiens, UniProt O15075)", "T2 construct": "gene DCLK1", "T2 sequence (O15075 1-740)": "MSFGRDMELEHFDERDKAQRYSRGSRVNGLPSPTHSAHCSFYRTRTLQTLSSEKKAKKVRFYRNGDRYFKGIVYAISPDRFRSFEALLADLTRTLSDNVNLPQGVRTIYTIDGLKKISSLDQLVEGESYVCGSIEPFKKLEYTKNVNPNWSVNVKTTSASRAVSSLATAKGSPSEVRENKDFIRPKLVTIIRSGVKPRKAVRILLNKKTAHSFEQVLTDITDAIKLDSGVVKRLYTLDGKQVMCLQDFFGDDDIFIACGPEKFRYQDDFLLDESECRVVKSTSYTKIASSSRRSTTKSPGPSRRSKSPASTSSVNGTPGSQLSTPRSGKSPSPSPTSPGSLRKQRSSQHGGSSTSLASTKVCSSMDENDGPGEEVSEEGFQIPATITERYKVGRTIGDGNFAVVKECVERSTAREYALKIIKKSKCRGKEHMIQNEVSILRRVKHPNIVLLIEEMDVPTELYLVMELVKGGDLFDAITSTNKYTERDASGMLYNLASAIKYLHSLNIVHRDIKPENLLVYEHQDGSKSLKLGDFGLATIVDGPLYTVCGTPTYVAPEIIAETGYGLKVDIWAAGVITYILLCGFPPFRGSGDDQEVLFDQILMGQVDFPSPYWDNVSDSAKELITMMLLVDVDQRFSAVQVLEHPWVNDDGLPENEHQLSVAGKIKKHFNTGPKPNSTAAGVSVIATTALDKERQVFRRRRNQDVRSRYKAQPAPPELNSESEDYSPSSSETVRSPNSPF", "method_in_brief": "as §1"}, "Tie2 (h)": {"target": "T3, Tie2 (h) (Homo sapiens, UniProt Q02763)", "T3 construct": "gene TEK", "method_in_brief": "as §1"}, "DCAMKL2(h)": {"target": "T4, DCAMKL2(h) (Homo sapiens, UniProt Q8N568)", "T4 construct": "gene DCLK2", "T4 sequence (Q8N568 1-766)": "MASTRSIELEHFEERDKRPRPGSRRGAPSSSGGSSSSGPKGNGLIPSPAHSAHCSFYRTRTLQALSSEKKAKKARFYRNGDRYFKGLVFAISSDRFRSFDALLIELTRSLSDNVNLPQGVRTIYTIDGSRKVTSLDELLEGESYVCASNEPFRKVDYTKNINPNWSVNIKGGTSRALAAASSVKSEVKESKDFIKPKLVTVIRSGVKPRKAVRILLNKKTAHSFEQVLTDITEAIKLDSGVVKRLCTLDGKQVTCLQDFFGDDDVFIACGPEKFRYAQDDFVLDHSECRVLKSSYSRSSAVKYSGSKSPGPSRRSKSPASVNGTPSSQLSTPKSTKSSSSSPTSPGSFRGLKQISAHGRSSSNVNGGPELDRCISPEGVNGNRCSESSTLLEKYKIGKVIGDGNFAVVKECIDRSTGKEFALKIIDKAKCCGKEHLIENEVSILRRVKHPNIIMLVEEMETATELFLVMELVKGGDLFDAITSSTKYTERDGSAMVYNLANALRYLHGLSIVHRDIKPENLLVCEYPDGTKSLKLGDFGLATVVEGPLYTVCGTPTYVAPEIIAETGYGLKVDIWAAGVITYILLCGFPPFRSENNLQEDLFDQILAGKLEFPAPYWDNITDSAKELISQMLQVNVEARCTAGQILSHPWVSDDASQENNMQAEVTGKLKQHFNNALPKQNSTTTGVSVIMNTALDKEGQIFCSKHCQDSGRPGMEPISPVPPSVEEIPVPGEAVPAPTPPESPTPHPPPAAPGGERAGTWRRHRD", "method_in_brief": "as §1"}, "[1]": {"target": "T5, PI3 Kinase (p110a/p85a)(h) (Homo sapiens, UniProt P42336)", "T5 construct": "gene PIK3CA", "T5 sequence (P42336 whole entry)": "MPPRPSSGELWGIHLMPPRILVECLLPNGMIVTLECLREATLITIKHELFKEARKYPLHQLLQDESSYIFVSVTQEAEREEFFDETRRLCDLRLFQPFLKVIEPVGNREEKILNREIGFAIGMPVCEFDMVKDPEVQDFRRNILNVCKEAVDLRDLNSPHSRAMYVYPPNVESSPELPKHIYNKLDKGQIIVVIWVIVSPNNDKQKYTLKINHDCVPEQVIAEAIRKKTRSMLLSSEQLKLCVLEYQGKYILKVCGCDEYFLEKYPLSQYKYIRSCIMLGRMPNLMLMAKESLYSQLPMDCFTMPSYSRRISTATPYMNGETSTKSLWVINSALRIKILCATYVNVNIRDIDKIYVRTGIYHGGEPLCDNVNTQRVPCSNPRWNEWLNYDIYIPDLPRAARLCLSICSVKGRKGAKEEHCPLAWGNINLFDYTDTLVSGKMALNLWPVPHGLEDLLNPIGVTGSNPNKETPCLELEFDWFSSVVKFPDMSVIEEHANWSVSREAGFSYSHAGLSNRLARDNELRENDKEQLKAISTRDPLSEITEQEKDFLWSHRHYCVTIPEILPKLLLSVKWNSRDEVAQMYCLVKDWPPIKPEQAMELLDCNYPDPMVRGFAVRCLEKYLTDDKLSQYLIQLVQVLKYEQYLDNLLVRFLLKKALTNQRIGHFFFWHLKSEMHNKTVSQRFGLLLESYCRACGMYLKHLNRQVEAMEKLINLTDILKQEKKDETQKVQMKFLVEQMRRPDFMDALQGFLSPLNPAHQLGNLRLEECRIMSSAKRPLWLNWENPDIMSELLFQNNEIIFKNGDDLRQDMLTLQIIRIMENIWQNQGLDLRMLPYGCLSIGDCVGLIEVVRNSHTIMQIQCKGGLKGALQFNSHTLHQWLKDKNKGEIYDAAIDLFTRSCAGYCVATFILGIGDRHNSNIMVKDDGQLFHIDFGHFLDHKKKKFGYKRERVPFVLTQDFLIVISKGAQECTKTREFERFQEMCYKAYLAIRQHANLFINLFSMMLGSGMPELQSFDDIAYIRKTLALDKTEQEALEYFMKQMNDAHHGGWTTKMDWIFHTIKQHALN", "T5 sequence (P27986 whole entry partner)": "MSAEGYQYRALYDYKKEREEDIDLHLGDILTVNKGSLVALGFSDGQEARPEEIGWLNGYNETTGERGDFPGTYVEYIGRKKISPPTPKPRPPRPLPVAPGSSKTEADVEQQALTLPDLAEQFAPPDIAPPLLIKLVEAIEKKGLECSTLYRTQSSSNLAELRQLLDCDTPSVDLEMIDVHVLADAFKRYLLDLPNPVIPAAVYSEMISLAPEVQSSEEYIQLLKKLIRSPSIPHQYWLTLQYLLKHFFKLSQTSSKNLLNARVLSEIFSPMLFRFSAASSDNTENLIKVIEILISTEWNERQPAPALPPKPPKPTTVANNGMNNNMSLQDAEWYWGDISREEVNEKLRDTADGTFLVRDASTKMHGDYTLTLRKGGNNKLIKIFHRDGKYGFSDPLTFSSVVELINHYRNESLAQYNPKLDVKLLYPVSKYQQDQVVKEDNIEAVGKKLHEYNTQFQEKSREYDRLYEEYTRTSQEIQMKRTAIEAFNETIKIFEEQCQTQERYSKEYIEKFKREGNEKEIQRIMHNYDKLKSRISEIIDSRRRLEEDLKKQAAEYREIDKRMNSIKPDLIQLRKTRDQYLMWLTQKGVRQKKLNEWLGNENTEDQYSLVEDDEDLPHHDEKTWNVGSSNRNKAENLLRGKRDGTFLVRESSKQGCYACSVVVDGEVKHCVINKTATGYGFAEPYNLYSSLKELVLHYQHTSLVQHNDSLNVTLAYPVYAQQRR", "method_in_brief": "as §1"}, "MRCKα(h)": {"target": "T6, MRCKα(h) (Homo sapiens, UniProt Q5VT25)", "T6 construct": "gene CDC42BPA", "T6 sequence (Q5VT25 whole entry)": "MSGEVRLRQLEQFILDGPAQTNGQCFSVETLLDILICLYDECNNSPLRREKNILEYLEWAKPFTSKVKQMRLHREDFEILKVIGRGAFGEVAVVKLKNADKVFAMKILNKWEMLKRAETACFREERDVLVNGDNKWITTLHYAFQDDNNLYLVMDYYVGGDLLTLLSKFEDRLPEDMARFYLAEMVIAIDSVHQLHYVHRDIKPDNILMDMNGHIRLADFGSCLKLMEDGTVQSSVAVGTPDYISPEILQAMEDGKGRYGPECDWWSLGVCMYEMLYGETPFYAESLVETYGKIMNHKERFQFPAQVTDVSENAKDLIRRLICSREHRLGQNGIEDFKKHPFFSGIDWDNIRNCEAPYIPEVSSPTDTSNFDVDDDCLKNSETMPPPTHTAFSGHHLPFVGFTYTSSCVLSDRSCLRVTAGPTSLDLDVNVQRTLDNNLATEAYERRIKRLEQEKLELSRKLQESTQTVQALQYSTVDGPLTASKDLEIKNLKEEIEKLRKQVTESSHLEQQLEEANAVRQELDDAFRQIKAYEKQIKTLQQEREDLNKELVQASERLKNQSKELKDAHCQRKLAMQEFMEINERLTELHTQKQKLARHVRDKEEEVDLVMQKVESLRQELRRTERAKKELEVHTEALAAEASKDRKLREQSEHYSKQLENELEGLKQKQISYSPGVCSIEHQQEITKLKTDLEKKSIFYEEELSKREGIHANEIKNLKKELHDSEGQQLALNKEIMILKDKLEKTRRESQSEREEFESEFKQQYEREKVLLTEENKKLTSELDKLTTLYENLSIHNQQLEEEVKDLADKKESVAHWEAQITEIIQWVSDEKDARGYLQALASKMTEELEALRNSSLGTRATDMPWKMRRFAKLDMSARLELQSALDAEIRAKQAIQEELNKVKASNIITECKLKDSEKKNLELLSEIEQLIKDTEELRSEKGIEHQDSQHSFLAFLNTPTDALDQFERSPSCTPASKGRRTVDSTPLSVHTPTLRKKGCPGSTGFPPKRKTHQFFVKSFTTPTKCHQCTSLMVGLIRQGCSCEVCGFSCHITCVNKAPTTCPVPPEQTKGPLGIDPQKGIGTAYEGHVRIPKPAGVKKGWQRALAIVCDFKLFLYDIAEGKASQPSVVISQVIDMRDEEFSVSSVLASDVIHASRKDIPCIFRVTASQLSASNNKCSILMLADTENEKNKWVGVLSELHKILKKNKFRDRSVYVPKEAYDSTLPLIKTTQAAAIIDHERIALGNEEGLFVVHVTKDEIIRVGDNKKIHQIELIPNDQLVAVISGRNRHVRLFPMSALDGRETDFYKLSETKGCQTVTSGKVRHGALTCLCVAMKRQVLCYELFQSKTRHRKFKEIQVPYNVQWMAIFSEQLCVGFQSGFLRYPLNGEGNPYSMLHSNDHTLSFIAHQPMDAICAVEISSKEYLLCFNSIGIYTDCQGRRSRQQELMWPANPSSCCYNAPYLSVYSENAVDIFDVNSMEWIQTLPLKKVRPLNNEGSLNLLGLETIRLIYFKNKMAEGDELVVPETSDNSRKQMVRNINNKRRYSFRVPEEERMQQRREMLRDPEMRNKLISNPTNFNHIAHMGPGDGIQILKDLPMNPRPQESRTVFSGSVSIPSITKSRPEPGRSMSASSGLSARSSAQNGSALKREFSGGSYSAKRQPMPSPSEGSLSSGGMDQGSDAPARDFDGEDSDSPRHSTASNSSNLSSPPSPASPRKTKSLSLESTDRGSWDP", "method_in_brief": "as §1"}, "[2]": {"conditions": "read-out: Residual activity (%) Spautin-1 5aa"}, "[3]": {"conditions": "read-out: Residual activity (%) 5as"}, "[4]": {"conditions": "read-out: Residual activity (%) 5at"}, "[5]": {"conditions": "read-out: Residual activity (%) 5ay"}},
  "note": "Like-named read-outs stand apart in the source and are kept apart here.",
  "data": [
    {"smiles": "Fc1ccc(CNc2ncnc3ccc(F)cc23)cc1", "note": "[5aa, 6-Fluoro-N-(4-fluorobenzyl)-4-Quinazolinamine]", "values": [
      {"measurement": "remaining activity at 10 µM", "setting": "PrKX(h); [2]", "result": 97, "unit": "%"},
      {"measurement": "remaining activity at 10 µM", "setting": "Flt1(h); [2]", "result": 101, "unit": "%"},
      {"measurement": "remaining activity at 10 µM", "setting": "DCAMKL1(h); [2]", "result": 95, "unit": "%"},
      {"measurement": "remaining activity at 10 µM", "setting": "Tie2 (h); [2]", "result": 104, "unit": "%"},
      {"measurement": "remaining activity at 10 µM", "setting": "DCAMKL2(h); [2]", "result": 81, "unit": "%"},
      {"measurement": "remaining activity at 10 µM", "setting": "[1]; [2]", "result": 100, "unit": "%"},
      {"measurement": "remaining activity at 10 µM", "setting": "MRCKα(h); [2]", "result": 91, "unit": "%"}
    ]},
    {"smiles": "Fc1ccc(CCNc2ncnc3ccc(F)cc23)cc1", "note": "[5as, 6-Fluoro-N-[2-(4-Fluorophenyl)Ethyl]-4-Quinazolinamine]", "values": [
      {"measurement": "remaining activity at 10 µM", "setting": "PrKX(h); [3]", "result": 97, "unit": "%"},
      {"measurement": "remaining activity at 10 µM", "setting": "Flt1(h); [3]", "result": 86, "unit": "%"},
      {"measurement": "remaining activity at 10 µM", "setting": "DCAMKL1(h); [3]", "result": 82, "unit": "%"},
      {"measurement": "remaining activity at 10 µM", "setting": "Tie2 (h); [3]", "result": 92, "unit": "%"},
      {"measurement": "remaining activity at 10 µM", "setting": "DCAMKL2(h); [3]", "result": 64, "unit": "%"},
      {"measurement": "remaining activity at 10 µM", "setting": "[1]; [3]", "result": 103, "unit": "%"},
      {"measurement": "remaining activity at 10 µM", "setting": "MRCKα(h); [3]", "result": 93, "unit": "%"}
    ]},
    {"smiles": "Fc1ccc2ncnc(NCCc3ccc(Cl)cc3)c2c1", "note": "[5at, N-[2-(4-Chlorophenyl)Ethyl]-6-Fluoro-4-Quinazolinamine]", "values": [
      {"measurement": "remaining activity at 10 µM", "setting": "PrKX(h); [4]", "result": 112, "unit": "%"},
      {"measurement": "remaining activity at 10 µM", "setting": "Flt1(h); [4]", "result": 80, "unit": "%"},
      {"measurement": "remaining activity at 10 µM", "setting": "DCAMKL1(h); [4]", "result": 89, "unit": "%"},
      {"measurement": "remaining activity at 10 µM", "setting": "Tie2 (h); [4]", "result": 75, "unit": "%"},
      {"measurement": "remaining activity at 10 µM", "setting": "DCAMKL2(h); [4]", "result": 57, "unit": "%"},
      {"measurement": "remaining activity at 10 µM", "setting": "[1]; [4]", "result": 94, "unit": "%"},
      {"measurement": "remaining activity at 10 µM", "setting": "MRCKα(h); [4]", "result": 98, "unit": "%"}
    ]},
    {"smiles": "COc1ccc2ncnc(Nc3cccc(F)c3)c2c1", "note": "[5ay, N-(3-Fluorophenyl)-6-Methoxy-4-Quinazolinamine]", "values": [
      {"measurement": "remaining activity at 10 µM", "setting": "PrKX(h); [5]", "result": 93, "unit": "%"},
      {"measurement": "remaining activity at 10 µM", "setting": "Flt1(h); [5]", "result": 87, "unit": "%"},
      {"measurement": "remaining activity at 10 µM", "setting": "DCAMKL1(h); [5]", "result": 84, "unit": "%"},
      {"measurement": "remaining activity at 10 µM", "setting": "Tie2 (h); [5]", "result": 94, "unit": "%"},
      {"measurement": "remaining activity at 10 µM", "setting": "DCAMKL2(h); [5]", "result": 80, "unit": "%"},
      {"measurement": "remaining activity at 10 µM", "setting": "[1]; [5]", "result": 101, "unit": "%"},
      {"measurement": "remaining activity at 10 µM", "setting": "MRCKα(h); [5]", "result": 87, "unit": "%"}
    ]}
  ]
}
